Source: PubChem BioAssay AID493062 (The Scripps Research Institute Molecular Screening Center, 2011)

What was measured:
2B4/BCL-2 = assay: caspase activation in 2B4/MCL-1 versus 2B4/BCL-2 cells, late-stage follow-up, selectivity assay for MCL1-BIM inhibitor project, cell-based, fluorescence, assay provider data (AID 493062); details: 2B4/MCL-1 caspase activation fluorescence
2B4/MCL-1 = assay: as above; details: 2B4/MCL-1 caspase activation fluorescence

| SMILES | EC50 (2B4/BCL-2) | EC50 (2B4/MCL-1) |
| --- | --- | --- |
| COc1ccc(Cc2nnc(NC(=O)Cc3c[nH]c4ccccc34)s2)cc1OC | > 25 µM | > 25 µM |
| Cc1ccc(-c2cc(C(=O)N3CCN(c4ccccc4O)CC3)c3ccccc3n2)o1 | > 25 µM | > 25 µM |
| Cc1ccc(-c2cc(C(=O)Nc3cccc(S(=O)(=O)N(C)C)c3)c3ccccc3n2)o1 | > 25 µM | > 25 µM |
| COc1ccc(NC(=O)c2cc(-c3ccc(C)o3)nc3ccccc23)cc1 | > 25 µM | > 25 µM |
| Cc1ccc(-c2cc(C(=O)N3CC(C)OC(C)C3)c3ccccc3n2)o1 (centres undefined) | > 25 µM | > 25 µM |
| COc1ccc(Cc2nnc(NC(=O)c3cc(-c4ccco4)nc4ccc(Br)cc34)s2)cc1OC | 7.5 µM | 11 µM |
| COc1ccc(Cc2nnc(NC(=O)CCc3cccs3)s2)cc1OC | > 25 µM | > 25 µM |
| Cc1ccc(-c2cc(C(=O)N3CCCC(C(F)(F)F)C3)c3ccccc3n2)o1 (centres undefined) | > 25 µM | > 25 µM |
| COc1ccc(Cc2nnc(NC(=O)Cc3cccc(Br)c3)s2)cc1OC | > 25 µM | > 25 µM |
| Cc1ccnc(NC(=O)c2cc(-c3ccco3)nc3ccc(Br)cc23)c1 | > 25 µM | 12 µM |
| COc1ccccc1NC(=O)c1cc(-c2ccc(C)o2)nc2ccccc12 | > 25 µM | > 25 µM |
| Cc1ccc(-c2cc(C(=O)N3CC(C)CC(C)C3)c3ccccc3n2)o1 (centres undefined) | > 25 µM | > 25 µM |
| Cc1ccc(-c2cc(C(=O)N3CCN(c4ccc(F)cc4)CC3)c3ccccc3n2)o1 | > 25 µM | > 25 µM |
| COc1ccc(Cc2nnc(NC(=O)Cc3cc(F)cc(F)c3)s2)cc1OC | > 25 µM | > 25 µM |
| CCCn1c(N)c(N(CCOC)C(=O)c2cc(-c3ccco3)nc3ccccc23)c(=O)[nH]c1=O | > 25 µM | > 25 µM |
| COc1ccc(Cc2nnc(NC(=O)Cc3ccc(C)cc3)s2)cc1OC | > 25 µM | > 25 µM |
| COc1ccc(Cc2nnc(NC(=O)C(=O)c3ccco3)s2)cc1OC | > 25 µM | > 25 µM |
| CN(CC(=O)Nc1cccc(F)c1)C(=O)c1cc(-c2ccco2)nc2ccccc12 | > 25 µM | > 25 µM |
| Cc1ccc(NC(=O)c2cc(-c3ccc(C)o3)nc3ccccc23)nc1 | > 25 µM | > 25 µM |
| CCCCN(C(=O)c1cc(-c2ccco2)nc2ccccc12)c1c(N)n(CCCC)c(=O)[nH]c1=O | > 25 µM | > 25 µM |
| COc1cccc(NC(=O)c2cc(-c3ccco3)nc3ccccc23)c1 | > 25 µM | > 25 µM |

| SMILES | EC50 (2B4/BCL-2) | EC50 (2B4/MCL-1) |
| --- | --- | --- |
| O=C(Nc1ccccn1)c1cc(-c2ccco2)nc2ccc(Br)cc12 | 3 µM | > 25 µM |
| O=C(Nc1nc2ccccc2s1)c1cc(-c2ccco2)nc2ccccc12 | > 25 µM | > 25 µM |
| CCc1nnc(NC(=O)c2cc(-c3ccco3)nc3ccccc23)s1 | > 25 µM | > 25 µM |
| Cc1csc(NC(=O)c2cc(-c3ccco3)nc3ccccc23)n1 | > 25 µM | > 25 µM |
| CC1CCCN(C(=O)c2cc(-c3ccco3)nc3ccccc23)C1 (centres undefined) | > 25 µM | > 25 µM |
| O=C(Nc1nncs1)c1cc(-c2ccco2)nc2ccccc12 | > 25 µM | > 25 µM |
| COc1ccc(Cc2nnc(NC(=O)c3cc(-c4ccco4)nc4ccccc34)s2)cc1OC | > 25 µM | > 25 µM |
| CCCCn1c(N)c(N(CC(C)C)C(=O)c2cc(-c3ccco3)nc3ccccc23)c(=O)[nH]c1=O | > 25 µM | > 25 µM |
| COc1ccc(Cc2nnc(NC(=O)Cc3ccncc3)s2)cc1OC | > 25 µM | > 25 µM |
| COc1ccc(Cc2nnc(NC(=O)Cc3csc4ccccc34)s2)cc1OC | > 25 µM | > 25 µM |
| CCCCN(C(=O)c1cc(-c2ccco2)nc2ccccc12)c1c(N)n(CCC)c(=O)[nH]c1=O | > 25 µM | > 25 µM |
| Cc1cccc(NC(=O)c2cc(-c3ccc(C)o3)nc3ccccc23)n1 | 25 µM | 40 µM |
| COc1ccc(Cc2nnc(NC(=O)Cc3ccc(N(C)C)cc3)s2)cc1OC | > 25 µM | > 25 µM |
| COc1ccc(-c2cc(=O)oc3cc(OCC(=O)N4CC4)ccc23)cc1 | > 25 µM | > 25 µM |
| O=C(NCC1CCCO1)c1cc(-c2ccco2)nc2ccccc12 (centres undefined) | > 25 µM | > 25 µM |
| COc1ccc(Cc2nnc(NC(=O)C(F)c3ccccc3)s2)cc1OC (centres undefined) | > 25 µM | > 25 µM |
| COc1ccc(Cc2nnc(NC(=O)C3(c4ccccc4)CC3)s2)cc1OC | > 25 µM | > 25 µM |
| CCOC(=O)C1CCCN(C(=O)c2cc(-c3ccco3)nc3ccccc23)C1 (centres undefined) | > 25 µM | > 25 µM |
| O=C(NC1CCC(O)CC1)c1cc(-c2ccco2)nc2ccccc12 (centres undefined) | > 25 µM | > 25 µM |
| COc1ccc(Cc2nnc(NC(=O)Cc3ccsc3)s2)cc1OC | > 25 µM | > 25 µM |
| COc1ccc(Cc2nnc(NC(=O)Cc3ccc(Oc4ccccc4)cc3)s2)cc1OC | 3.6 µM | 4 µM |

| SMILES | EC50 (2B4/BCL-2) | EC50 (2B4/MCL-1) |
| --- | --- | --- |
| CCCCn1c(N)c(N(CCC(C)C)C(=O)c2cc(-c3ccco3)nc3ccccc23)c(=O)[nH]c1=O | > 25 µM | > 25 µM |
| CCOc1cc(N2CCOCC2)c(OCC)cc1NC(=O)c1cc(-c2ccco2)nc2ccccc12 | > 25 µM | > 25 µM |
| Cc1ccc(-c2cc(C(=O)NCCN3CCOCC3)c3ccccc3n2)o1 | > 25 µM | > 25 µM |
| COc1ccc(Cc2nnc(NC(=O)Cc3sc(=S)[nH]c3C)s2)cc1OC | > 25 µM | > 25 µM |
| COc1ccccc1CC(=O)Nc1nnc(Cc2ccc(OC)c(OC)c2)s1 | > 25 µM | > 25 µM |
| CCN(CC)CCNC(=O)c1cc(-c2ccco2)nc2ccccc12 | > 25 µM | > 25 µM |
| O=C(CCn1nnc2ccccc21)Nc1nnc(Cc2ccccc2)s1 | > 25 µM | > 25 µM |
| Cc1ccc(-c2cc(C(=O)Nc3nccs3)c3ccccc3n2)o1 | > 25 µM | > 25 µM |
| COc1cccc(NC(=O)CN(C)C(=O)c2cc(-c3ccco3)nc3ccccc23)c1 | > 25 µM | > 25 µM |
| CCN1CCN(C(=O)c2cc(-c3ccco3)nc3ccccc23)CC1 | > 25 µM | > 25 µM |
| CCOC(=O)c1cc(-c2ccco2)nc2c1c(C)nn2-c1ccccc1 | > 25 µM | > 25 µM |
| COc1ccc(CC(=O)Nc2nnc(Cc3ccc(OC)c(OC)c3)s2)cc1 | > 25 µM | > 25 µM |
| NS(=O)(=O)c1ccc(CCNC(=O)c2cc(-c3ccco3)nc3ccccc23)cc1 | > 25 µM | > 25 µM |
| O=C(Nc1nccs1)c1cc(-c2ccco2)nc2ccccc12 | > 25 µM | > 25 µM |
| COc1ccc(Cc2nnc(NC(=O)Cc3cccnc3)s2)cc1OC | > 25 µM | > 25 µM |
| CN(CC(=O)Nc1ccc(F)cc1)C(=O)c1cc(-c2ccco2)nc2ccccc12 | > 25 µM | > 25 µM |
| Cc1ccc2nc(NC(=O)c3cc(-c4ccco4)nc4ccccc34)sc2c1 | > 25 µM | > 25 µM |
| COC(=O)C1CCN(C(=O)c2cc(-c3ccco3)nc3ccccc23)CC1 | > 25 µM | > 25 µM |
| CCOC(=O)c1cc(-c2ccco2)nc2c1c(C)nn2-c1cccc(Cl)c1 | > 25 µM | > 25 µM |
| CC(=O)c1cccc(NC(=O)c2cc(-c3ccco3)nc3ccccc23)c1 | > 25 µM | > 25 µM |
